Data from patent EP4692072A1, “PHOTOCHROMIC COMPOUND, PROPARGYL ALCOHOL COMPOUND, CURABLE COMPOSITION, OPTICAL ARTICLE, LENS, AND SPECTACLES” (TOKUYAMA CORPORATION, priority 2023, dated 2024).

Assays:
[1] = Photochromic properties of photochromic laminate (plastic lens) prepared by coating method; type: physicochemical; settings: 40 µm photochromic layer on thiourethane lens, 0.25 mmol compound per 100 g monomers, after color development
Text: (§1) First, the photochromic compound obtained in Example 1, a photoinitiator, and a polymerizable compound were mixed to obtain a curable composition.
(§2) Polyethylene glycol dimethacrylate (average molecular weight: 736): 42 parts by mass • Polyethylene glycol dimethacrylate (average molecular weight: 536): 12 parts by mass • Trimethylolpropane trimethacrylate: 38 parts by mass γ-methacryloyloxypropyl trimethoxysilane: 2 parts by mass Glycidyl methacrylate: 1 part by mass
(§3) Note that the photochromic compound was added to the curable composition so that the amount of the photochromic compound was 0.25 mmol based on 100 g of the total amount of the radical-polymerizable monomers.
(§4) Phenylbis(2,4,6-trimethylbenzoyl)phosphine oxide (photoinitiator: Omnirad 819): 0.3 parts by mass Ethylene bis(oxyethylene) bis[3-(5-tert-butyl-4-hydroxy-m-tolyl)propionate] (stabilizer, Irganox 245): 1 part by mass Bis(1,2,2,6,6-pentamethyl-4-piperidyl) sebacate: 3 parts by mass Leveling agent (L7001) manufactured by Dow Corning Toray Co.,Ltd.: 0.1 part by mass
(§5) First, a thiourethane-based plastic lens having a central thickness of 2 mm and a refractive index of 1.60 was prepared as the optical substrate. Note that this thiourethane-based plastic lens was pre-treated by alkaline etching with a 10% sodium hydroxide aqueous solution at 50°C for 5 minutes, followed by sufficient washing with distilled water.
(§6) A surface of the above-described plastic lens was coated with a moisture-curable primer (product name: TR-SC-P, manufactured by Tokuyama Corporation) at a rotation frequency of 70 rpm for 15 seconds, followed by 1000 rpm for 10 seconds, using a spin coater (1H-DX2, manufactured by MIKASA CO., LTD), Subsequently, about 2 g of the photochromic curable composition obtained above was spin-coated at a rotation frequency of 60 rpm for 40 seconds, followed by 600 rpm for 10 to 20 seconds, to form a photochromic coating layer with a film thickness of 40 µm.
(§7) The lens with the surface coated with the photochromic curable composition (photochromic coating layer) was irradiated with light using a metal halide lamp with an output power of 200 mW/cm^2 in a nitrogen gas atmosphere for 90 seconds to cure the coating film. Subsequently, the lens was further heated at 110°C for 1 hour to prepare a photochromic laminate having a photochromic layer.
In the same manner as in Example 26, photochromic laminates were prepared using the photochromic compounds obtained in Examples 2 to 25.
(§8) • [1] Maximum Absorption Wavelength (λmax): The maximum absorption wavelength after color development, measured using a spectrophotometer (instantaneous multichannel photodetector MCPD3000) manufactured by Otsuka Electronics Co., Ltd. was used as an indicator for the color tone during the color development. • [2] 23°C Color Optical Density (A23): A difference between an absorbancy measured after light irradiation at 23°C for 300 seconds {ε(300)} and an absorbancy without light irradiation ε(0) at the maximum absorption wavelength was used as an indicator for the color optical density. […] 23°C color fading half-life [τ1/2 (sec.)]: A time required for the absorbancy of the sample at the maximum absorption wavelength to decrease to 1/2 of {ε(300)-ε(0)} when the light irradiation was terminated after the light irradiation at 23°C for 300 seconds, was used as an indicator for the color fading speed. The shorter this time, the higher the color fading speed. • [4] Residual rate (A120/A0×100): The obtained photochromic plastic lens was subjected to accelerated deterioration using a xenon weather meter X25 manufactured by Suga Test Instruments Co., Ltd. for 120 hours. Subsequently, the color optical density was evaluated before and after the test, then a color optical density before the test (A0) and a color optical density after the test (A120) were measured, and a ratio (A120/A0) was defined as a residual rate. The residual rate was used as an indicator for a color developing durability. […]

[2] = Accelerated deterioration (xenon weather meter X25, 120 hours) of photochromic laminate prepared by coating method; type: physicochemical; settings: 0.25 mmol per 100 g monomers, A120/A0×100 after 120 hours xenon weather meter
Text: as §1, §2, §3, §4, §5, §6, §7
as §8, with “durability. The higher the residual rate, the higher the color developing durability.” for “durability.”

SMILES	Maximum absorption wavelength [1] [nm]	Residual rate [2] [%]	further results
CCCc1ccc(C2(c3ccc(N(C)c4ccccc4)cc3)C=Cc3c4c(c5cc(OC)ccc5c3O2)-c2ccccc2C42CCCCCCC2)cc1 (centres unmarked) [Example 61]	487	59	Maximum absorption wavelength ([1]; listed as Formula (122)): 564 nm; Residual rate ([2]; listed as Formula (122)): 57%
CCCc1ccc(C2(c3ccc(N(C)c4ccccc4)cc3)C=Cc3c4c(c5cc(-c6ccc(C)cc6)c(C)cc5c3O2)-c2ccccc2C4(CCOC)CCOC)cc1 (centres unmarked) [Example 18]	587	60	
COc1ccc(C2(c3ccc(N(C)c4ccccc4)cc3)C=Cc3c4c(c5cc(-c6c(OC)cc(OC)cc6OC)c(OC)cc5c3O2)-c2ccc(C)cc2C4(CCCSC)CCCSC)cc1 (centres unmarked) [Example 12]	478	65	Maximum absorption wavelength ([1]; listed as Formula (66)): 614 nm
CCCOc1ccc(C2(c3ccc(N(CC(F)(F)F)c4ccccc4)cc3)C=Cc3c4c(c5cc(-c6ccc(OC)cc6)c(C)cc5c3O2)-c2ccc(C)cc2C4(CC)CC)cc1 (centres unmarked) [Example 17]	484	56	Maximum absorption wavelength ([1]; listed as Formula (78)): 592 nm
CCCCCCC1(CCCCCC)c2ccccc2-c2c1c1c(c3cc(OC)ccc23)OC(c2ccc(F)cc2)(c2ccc(N(CC)c3ccccc3)cc2)C=C1 (centres unmarked) [Example 4]	489	57	Maximum absorption wavelength ([1]; listed as Formula (48)): 601 nm
COc1ccc(C2(c3ccc(N(c4ccccc4)C4CCCCC4)cc3)C=Cc3c4c(c5cc(OC)c(OC)cc5c3O2)-c2ccccc2C4(CCCCF)CCCCF)cc1 (centres unmarked) [Example 6]	481	70	Maximum absorption wavelength ([1]; listed as Formula (53)): 593 nm; Residual rate ([2]; listed as Formula (53)): 63%
COCCCCC1(CCCCOC)c2cc(-c3ccccc3)ccc2-c2c1c1c(c3cc(OC)c(N4CCS(=O)(=O)CC4)cc23)OC(c2ccc(OCCOCCOC)cc2)(c2ccc(N(C)c3ccccc3)cc2)C=C1 (centres unmarked) [Example 58]	498	60	Maximum absorption wavelength ([1]; listed as Formula (114)): 617 nm
CCCCC1(CCCC)c2cc([Si](C)(c3ccccc3)c3ccccc3)ccc2-c2c1c1c(c3cc(OC)c(C)cc23)OC(c2ccc(C)cc2)(c2ccc(N(C)c3ccccc3)cc2)C=C1 (centres unmarked) [Example 15]	487	58	Maximum absorption wavelength ([1]; listed as Formula (75)): 602 nm
COCCCC1(CCCOC)c2cc(-c3ccc(C(C)(C)C)cc3)ccc2-c2c1c1c(c3cc(OC)c(OC)cc23)OC(c2ccc(N(CCOC)c3ccccc3)cc2)(c2ccc3c(c2)OCCO3)C=C1 (centres unmarked) [Example 20]	486	67	Maximum absorption wavelength ([1]; listed as Formula (81)): 608 nm; Residual rate ([2]; listed as Formula (81)): 63%
CCCOc1ccc(C2(c3ccc(N(CC(F)(F)F)c4ccccc4)cc3)C=Cc3c4c(c5ccccc5c3O2)-c2ccccc2C42CCCCCCC2)cc1 (centres unmarked) [Example 9]	578	62	
COc1ccc(C2(c3ccc(N(C)c4ccccc4)cc3)C=Cc3c4c(c5cc(-c6ccc(N7CCSCC7)cc6)c(OC)cc5c3O2)-c2ccc(OC)cc2C4(CCC(F)(F)F)CCC(F)(F)F)cc1 (centres unmarked) [Example 54]	501	67	Maximum absorption wavelength ([1]; listed as Formula (96)): 628 nm
CCCC1(CCC)c2ccccc2-c2c1c1c(c3cc(OC)c(N(c4ccccc4)c4ccccc4)cc23)OC(c2ccc(C)cc2)(c2ccc(N(C)c3ccccc3)cc2)C=C1 (centres unmarked) [Example 22]	530	68	
COc1ccc(C2(c3ccc(N(C)c4ccccc4)cc3)C=Cc3c4c(c5cc6c(cc5c3O2)SC(C)(C)S6)-c2ccc(-c3ccc(F)c(F)c3F)cc2C42CCCCCCCCCCC2)cc1 (centres unmarked) [Example 52]	488	58	Maximum absorption wavelength ([1]; listed as Formula (93)): 604 nm; Residual rate ([2]; listed as Formula (93)): 56%
COc1cc2c3c(c4c(c2cc1OC)-c1ccc(-c2ccc(C(F)(F)F)cc2)cc1C4(CCCC(F)(F)F)CCCC(F)(F)F)C=CC(c1ccc(Oc2ccccc2)cc1)(c1ccc(N(C)c2ccccc2)cc1)O3 (centres unmarked) [Example 13]	489	65	Maximum absorption wavelength ([1]; listed as Formula (69)): 605 nm; Residual rate ([2]; listed as Formula (69)): 60%
